In PubChem BioAssay (NCI):
Several values for one entry are separate records, joined by “and”; a condition that tells them apart may be missing. Equal values may be shown once.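 Grown in 96-well plates, cells were treated for 48 hours with each compound at five concentrations. Insufficient inhibition: endpoint recorded as highest concentration tested. Here, GI50 denotes the concentration required for 50% inhibition of growth. The concentration for full growth arrest is given as TGI.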

What was measured:
Test in all cases: NCI-60 cell line screen, 48 h
KM12 colon = system: KM12 colon
HOP-92 NSCLC = system: HOP-92 NSCLC
HCT-15 colon = system: HCT-15 colon
MCF7 breast = system: MCF7 breast
OVCAR-3 ovarian = system: OVCAR-3 ovarian
SNB-19 CNS = system: SNB-19 CNS
A498 renal = system: A498 renal
HT29 colon = system: HT29 colon
RXF 393 renal = system: RXF 393 renal
HL-60(TB) leukemia = system: HL-60(TB) leukemia
LOX IMVI melanoma = system: LOX IMVI melanoma
DU-145 prostate = system: DU-145 prostate
NCI/ADR-RES ovarian = system: NCI/ADR-RES ovarian
SK-MEL-2 melanoma = system: SK-MEL-2 melanoma
CAKI-1 renal = system: CAKI-1 renal
NCI-H522 lung = system: NCI-H522 lung
OVCAR-8 ovarian = system: OVCAR-8 ovarian
SK-MEL-5 melanoma = system: SK-MEL-5 melanoma
SF-539 CNS = system: SF-539 CNS
HS 578T breast = system: HS 578T breast
NCI-H460 lung = system: NCI-H460 lung
A549 NSCLC = system: A549 NSCLC
OVCAR-5 ovarian = system: OVCAR-5 ovarian
PC-3 prostate = system: PC-3 prostate
SK-OV-3 ovarian = system: SK-OV-3 ovarian
MALME-3M melanoma = system: MALME-3M melanoma
M14 melanoma = system: M14 melanoma
UACC-62 melanoma = system: UACC-62 melanoma
SW-620 colon = system: SW-620 colon
HCC-2998 colon = system: HCC-2998 colon
HCT-116 colon = system: HCT-116 colon
SN12C renal = system: SN12C renal
T-47D breast = system: T-47D breast
MDA-MB-435 = system: MDA-MB-435
MDA-N = system: MDA-N
CCRF-CEM leukemia = system: CCRF-CEM leukemia
UACC-257 melanoma = system: UACC-257 melanoma
786-0 renal = system: 786-0 renal
SF-295 CNS = system: SF-295 CNS
UO-31 renal = system: UO-31 renal
K-562 leukemia = system: K-562 leukemia
TK-10 renal = system: TK-10 renal
U251 CNS = system: U251 CNS
SNB-75 CNS = system: SNB-75 CNS
ACHN renal = system: ACHN renal
MOLT-4 leukemia = system: MOLT-4 leukemia
BT-549 breast = system: BT-549 breast
OVCAR-4 ovarian = system: OVCAR-4 ovarian
SF-268 CNS = system: SF-268 CNS
NCI-H23 lung = system: NCI-H23 lung
SR leukemia = system: SR leukemia
MDA-MB-231 breast = system: MDA-MB-231 breast
RPMI-8226 leukemia = system: RPMI-8226 leukemia
EKVX NSCLC = system: EKVX NSCLC
IGROV1 ovarian = system: IGROV1 ovarian
NCI-H226 lung = system: NCI-H226 lung
HOP-62 NSCLC = system: HOP-62 NSCLC
COLO 205 colon = system: COLO 205 colon
SK-MEL-28 melanoma = system: SK-MEL-28 melanoma

O=C(/C=C/c1cccc(Br)c1)c1ccc(Cl)cc1
TGI (KM12 colon): 32.5 µM
TGI (HOP-92 NSCLC): 31.7 µM
TGI (HCT-15 colon): 31.1 µM
TGI (MCF7 breast): 16.3 µM
TGI (OVCAR-3 ovarian): 32.3 µM
TGI (SNB-19 CNS): 30.1 µM
TGI (A498 renal): 26.5 µM
TGI (HT29 colon): 24.5 µM
TGI (RXF 393 renal): 35.5 µM
TGI (HL-60(TB) leukemia): 44.5 µM
TGI (LOX IMVI melanoma): 28 µM
TGI (DU-145 prostate): 30.3 µM
TGI (NCI/ADR-RES ovarian): 59.2 µM
TGI (SK-MEL-2 melanoma): 29.3 µM
TGI (CAKI-1 renal): 40.1 µM
TGI (NCI-H522 lung): 30.5 µM
TGI (OVCAR-8 ovarian): 32.1 µM
TGI (SK-MEL-5 melanoma): 27.2 µM
TGI (SF-539 CNS): 30.4 µM
TGI (HS 578T breast): 57.3 µM
TGI (NCI-H460 lung): 37.3 µM
TGI (A549 NSCLC): 33.5 µM
TGI (OVCAR-5 ovarian): 30.6 µM
TGI (PC-3 prostate): 28.2 µM
TGI (SK-OV-3 ovarian): 43.6 µM
TGI (MALME-3M melanoma): 29 µM
TGI (M14 melanoma): 28.1 µM
TGI (UACC-62 melanoma): 29 µM
TGI (SW-620 colon): 13.3 µM
TGI (HCC-2998 colon): 33.7 µM
TGI (HCT-116 colon): 18 µM
TGI (SN12C renal): 32.4 µM
TGI (T-47D breast): 32.1 µM
TGI (MDA-MB-435): 25.5 µM
TGI (MDA-N): 20 µM
TGI (CCRF-CEM leukemia): 24.9 µM
TGI (UACC-257 melanoma): 32.1 µM
TGI (786-0 renal): 28.3 µM
TGI (SF-295 CNS): 32.6 µM
TGI (UO-31 renal): 29.3 µM
TGI (K-562 leukemia): 45.7 µM
TGI (TK-10 renal): 27.2 µM
TGI (U251 CNS): 18.6 µM
TGI (SNB-75 CNS): 28.1 µM
TGI (ACHN renal): 30.4 µM
TGI (MOLT-4 leukemia): 77.8 µM
TGI (BT-549 breast): 31.9 µM
TGI (OVCAR-4 ovarian): 32.1 µM
TGI (SF-268 CNS): 34.1 µM
TGI (NCI-H23 lung): 32.7 µM
TGI (SR leukemia): 20.4 µM
TGI (MDA-MB-231 breast): 35.2 µM
TGI (RPMI-8226 leukemia): 6.31 µM
TGI (EKVX NSCLC): 29.7 µM
TGI (IGROV1 ovarian): 35.8 µM
TGI (NCI-H226 lung): 33.7 µM
TGI (HOP-62 NSCLC): 35.9 µM
TGI (COLO 205 colon): 30.9 µM
TGI (SK-MEL-28 melanoma): 29.1 µM

C[C@@]12C(=O)OC(=O)[C@]1(C)[C@H]1CC[C@@H]2O1
GI50 (KM12 colon): 1.37 µM
TGI (KM12 colon): 2.76 µM and 17.5 µM
GI50 (HOP-92 NSCLC): 0.846 µM
TGI (HOP-92 NSCLC): 2.2 µM and 2.96 µM
GI50 (HCT-15 colon): 2.03 µM
TGI (HCT-15 colon): 4.7 µM and 13.8 µM
TGI (MCF7 breast): 2.29 µM and 21.3 µM
GI50 (OVCAR-3 ovarian): 0.871 µM
TGI (OVCAR-3 ovarian): 2.19 µM and 2.23 µM
GI50 (SNB-19 CNS): 1.23 µM
TGI (SNB-19 CNS): 2.53 µM and 2.83 µM
GI50 (A498 renal): 1.47 µM
TGI (A498 renal): 2.84 µM and 2.69 µM
TGI (HT29 colon): 3.43 µM and 5.93 µM
TGI (RXF 393 renal): 1.46 µM and 1.7 µM
GI50 (HL-60(TB) leukemia): 1.39 µM
TGI (HL-60(TB) leukemia): 3.77 µM and 4.07 µM
GI50 (LOX IMVI melanoma): 1.44 µM
TGI (LOX IMVI melanoma): 2.89 µM and 6.79 µM
GI50 (DU-145 prostate): 1.37 µM
TGI (DU-145 prostate): 2.82 µM and 2.81 µM
GI50 (NCI/ADR-RES ovarian): 1.87 µM
TGI (NCI/ADR-RES ovarian): 4.94 µM and 25.5 µM
GI50 (SK-MEL-2 melanoma): 1.26 µM
TGI (SK-MEL-2 melanoma): 2.77 µM and 3.38 µM
TGI (CAKI-1 renal): 2.11 µM and 2.29 µM
GI50 (NCI-H522 lung): 1.11 µM
TGI (NCI-H522 lung): 2.43 µM and 3.21 µM
GI50 (OVCAR-8 ovarian): 2.1 µM
TGI (OVCAR-8 ovarian): 4.93 µM and 18 µM
GI50 (SK-MEL-5 melanoma): 1.1 µM
TGI (SK-MEL-5 melanoma): 2.33 µM and 2.77 µM
GI50 (SF-539 CNS): 1.62 µM
TGI (SF-539 CNS): 3.09 µM and 4.5 µM
GI50 (HS 578T breast): 1.36 µM and 1.56 µM
TGI (HS 578T breast): 3 µM and 3.29 µM
GI50 (NCI-H460 lung): 2.45 µM
TGI (NCI-H460 lung): 10.3 µM and 9.87 µM
GI50 (A549 NSCLC): 1.09 µM
TGI (A549 NSCLC): 2.92 µM and 4.9 µM
GI50 (OVCAR-5 ovarian): 1.3 µM
TGI (OVCAR-5 ovarian): 3.46 µM and 7.72 µM
GI50 (PC-3 prostate): 0.525 µM
TGI (PC-3 prostate): 2.02 µM and 1.23 µM
GI50 (SK-OV-3 ovarian): 1.48 µM
TGI (SK-OV-3 ovarian): 3.36 µM and 5.24 µM
GI50 (MALME-3M melanoma): 1.5 µM
TGI (MALME-3M melanoma): 2.99 µM and 3.08 µM
TGI (M14 melanoma): 2.87 µM and 3.48 µM
GI50 (UACC-62 melanoma): 1.36 µM
TGI (UACC-62 melanoma): 2.86 µM and 7.48 µM
GI50 (SW-620 colon): 3.07 µM
TGI (SW-620 colon): 10.9 µM and 16.6 µM
GI50 (HCC-2998 colon): 1.03 µM
TGI (HCC-2998 colon): 3 µM and 2.69 µM
TGI (HCT-116 colon): 4.38 µM and 4.91 µM
GI50 (SN12C renal): 1.58 µM
TGI (SN12C renal): 3.21 µM and 4.43 µM
GI50 (T-47D breast): 1.47 µM
TGI (T-47D breast): 3.14 µM and 4.88 µM
GI50 (MDA-MB-435): 1.62 µM
TGI (MDA-MB-435): 3.02 µM and 4.43 µM
GI50 (MDA-N): 1.29 µM
TGI (MDA-N): 2.67 µM and 9.02 µM
GI50 (CCRF-CEM leukemia): 1.59 µM
TGI (CCRF-CEM leukemia): 10.8 µM and 7.85 µM
GI50 (UACC-257 melanoma): 1.49 µM
TGI (UACC-257 melanoma): 3.11 µM and 9.63 µM
GI50 (786-0 renal): 1.47 µM
TGI (786-0 renal): 2.85 µM and 3.56 µM
TGI (SF-295 CNS): 2.85 µM and 3.22 µM
GI50 (UO-31 renal): 1.51 µM
TGI (UO-31 renal): 2.85 µM and 7.06 µM
GI50 (K-562 leukemia): 2.78 µM
TGI (K-562 leukemia): 10.1 µM and 8.85 µM
GI50 (TK-10 renal): 0.25 µM
TGI (TK-10 renal): 0.608 µM and 0.792 µM
TGI (U251 CNS): 2.64 µM and 2.91 µM
GI50 (SNB-75 CNS): 0.698 µM
TGI (SNB-75 CNS): 1.91 µM and 1.56 µM
TGI (ACHN renal): 2.43 µM and 2.83 µM
GI50 (MOLT-4 leukemia): 3.88 µM
TGI (MOLT-4 leukemia): 18 µM and 28.8 µM
TGI (BT-549 breast): 3.06 µM and 3.29 µM
GI50 (OVCAR-4 ovarian): 1.79 µM
TGI (OVCAR-4 ovarian): 3.88 µM and 8.61 µM
GI50 (SF-268 CNS): 0.477 µM
TGI (SF-268 CNS): 1.75 µM and 3.85 µM
GI50 (NCI-H23 lung): 2.79 µM
TGI (NCI-H23 lung): 11.4 µM and 20.6 µM
GI50 (SR leukemia): 6.78 µM
TGI (SR leukemia): 44.9 µM and 15.3 µM
GI50 (MDA-MB-231 breast): 1.51 µM
TGI (MDA-MB-231 breast): 3.04 µM and 3.24 µM
GI50 (RPMI-8226 leukemia): 3.15 µM
TGI (RPMI-8226 leukemia): 18.2 µM and 6.29 µM
GI50 (EKVX NSCLC): 0.556 µM
TGI (EKVX NSCLC): 1.76 µM and 1.9 µM
GI50 (IGROV1 ovarian): 1.8 µM
TGI (IGROV1 ovarian): 3.82 µM and 7.78 µM
GI50 (NCI-H226 lung): 1.5 µM
TGI (NCI-H226 lung): 2.97 µM
GI50 (HOP-62 NSCLC): 1.81 µM
TGI (HOP-62 NSCLC): 3.34 µM and 5.73 µM
TGI (COLO 205 colon): 1.69 µM and 1.01 µM
GI50 (SK-MEL-28 melanoma): 1.54 µM
TGI (SK-MEL-28 melanoma): 3 µM and 11.1 µM
